Laboratory results taken from patent publication US5739123A, “Phosphinic acid derivatives with metallopeptidase inhibitory activity” (Zambon Group S.p.A., priority 1994, dated 1998).
Structures can show the parent of a compound that is named as a salt.

Experiments:
[1] = system: thermolysin; settings: J. Am. Chem. Soc. 1991, 113, 297-307; cited from earlier work
[2] = target: T1, NEP (Rattus norvegicus, UniProt P07861); experiment: NEP-inhibitory activity, in vitro (kidney cortex membranes, [3H][Leu5]-enkephaline substrate); type: biochemical, male Sprague-Dawley rats; settings: rat kidney cortex membranes 5 μg/ml of proteins; [3H][Leu5]-enkephaline 15 nM; pH 7.4; 20 minutes at 30° C.; tested as lithium or sodium salts
T1 construct: Membranes from kidney cortex were prepared; from tissue; host or cells: kidney cortex membranes of male Sprague-Dawley rats
T1 sequence (P07861 1-750): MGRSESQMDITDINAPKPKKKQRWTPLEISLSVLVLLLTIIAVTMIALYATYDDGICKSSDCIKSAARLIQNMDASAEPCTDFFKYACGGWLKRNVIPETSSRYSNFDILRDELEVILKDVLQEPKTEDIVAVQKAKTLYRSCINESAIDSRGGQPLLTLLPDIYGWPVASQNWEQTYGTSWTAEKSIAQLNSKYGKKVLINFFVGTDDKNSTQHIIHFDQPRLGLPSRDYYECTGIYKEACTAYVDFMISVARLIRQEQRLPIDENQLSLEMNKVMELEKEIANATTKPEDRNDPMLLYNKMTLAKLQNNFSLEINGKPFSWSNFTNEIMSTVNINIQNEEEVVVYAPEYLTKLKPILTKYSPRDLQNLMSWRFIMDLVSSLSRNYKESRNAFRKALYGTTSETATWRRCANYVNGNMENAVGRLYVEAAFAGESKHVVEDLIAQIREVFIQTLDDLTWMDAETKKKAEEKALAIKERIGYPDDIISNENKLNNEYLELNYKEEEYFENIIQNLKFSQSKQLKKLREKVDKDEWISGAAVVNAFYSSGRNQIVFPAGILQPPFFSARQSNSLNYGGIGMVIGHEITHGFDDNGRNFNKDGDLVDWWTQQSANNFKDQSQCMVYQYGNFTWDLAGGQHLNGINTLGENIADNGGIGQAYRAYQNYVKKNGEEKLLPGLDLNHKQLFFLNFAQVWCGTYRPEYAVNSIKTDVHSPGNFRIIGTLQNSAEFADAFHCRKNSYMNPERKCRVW
Protocol: The NEP-inhibitory activity was evaluated according to the method reported in the literature by C. Llorens et al., in Eur. J. Pharmacol., 69, (1981), 113-116.
Membranes from kidney cortex were prepared according to the following procedure.
By working at 0°-4° C., kidneys were removed from male Sprague-Dawley rats weighing approximately 300 g.
Cortex was carefully dissected, finely minced and suspended in a homogenization buffer (10 mM sodium phosphate pH 7.4 containing 1 mM MgCl2, 30 mM NaCl, 0.02% NAN3) 1:15 weight/volume.
The tissue was then homogenized for 30 seconds using an Ultra-Turrax homogenizer.
Approximately 10 ml of homogenate were layered over 10 ml of sucrose (41% weight/volume) and centrifuged at 31200 rpm for 30 minutes at 4° C. in a fixed angle rotor.
The membranes were collected from the buffer/sucrose interface, washed twice with 50 mM TRIS/HCl buffer (pH 7.4) and resuspended into the same buffer for storage.
The membranes were stored in small aliquots at -80° C. until use. The NEP-inhibitory activity was evaluated by using the following method.
Aliquots of the membrane suspension prepared as above described (concentration 5 μg/ml of proteins) were preincubated in the presence of an aminopeptidase inhibitor (Bestatin--1 mM) for 10 minutes at 30° C.
[^3 H][Leu^5 ]-enkephaline (15 nM) and buffer TRIS/HCl pH 7.4 (50 mM) were added in order to obtain a final volume of 100 μl. Incubation (20 minutes at 30° C.) was stopped by adding HCl 0.1M (100 μl).
The formation of the metabolite [^3 H]Tyr-Gly-Gly was quantified by chromatography on polystyrene columns (Porapak Q). The percentage of inhibition of the metabolite formation in the membrane preparations treated with the compounds of formula I, in comparison to the untreated membrane preparations, was expressed as IC50 value (nM).
(§1) The compounds of formula I were tested in the form of lithium or sodium salts.

[3] = target: T2, ACE (Oryctolagus cuniculus, UniProt P12822); experiment: ACE-inhibitory activity, in vitro (FAPGG substrate); type: biochemical; settings: ACE purified from lung rabbit; FAPGG 0.8 mM; 37° C.; 340 nm, 5 minutes; tested as lithium or sodium salts
T2 construct: purchased SIGMA; host or cells: rabbit lung (purified)
T2 sequence (P12822 34-1310): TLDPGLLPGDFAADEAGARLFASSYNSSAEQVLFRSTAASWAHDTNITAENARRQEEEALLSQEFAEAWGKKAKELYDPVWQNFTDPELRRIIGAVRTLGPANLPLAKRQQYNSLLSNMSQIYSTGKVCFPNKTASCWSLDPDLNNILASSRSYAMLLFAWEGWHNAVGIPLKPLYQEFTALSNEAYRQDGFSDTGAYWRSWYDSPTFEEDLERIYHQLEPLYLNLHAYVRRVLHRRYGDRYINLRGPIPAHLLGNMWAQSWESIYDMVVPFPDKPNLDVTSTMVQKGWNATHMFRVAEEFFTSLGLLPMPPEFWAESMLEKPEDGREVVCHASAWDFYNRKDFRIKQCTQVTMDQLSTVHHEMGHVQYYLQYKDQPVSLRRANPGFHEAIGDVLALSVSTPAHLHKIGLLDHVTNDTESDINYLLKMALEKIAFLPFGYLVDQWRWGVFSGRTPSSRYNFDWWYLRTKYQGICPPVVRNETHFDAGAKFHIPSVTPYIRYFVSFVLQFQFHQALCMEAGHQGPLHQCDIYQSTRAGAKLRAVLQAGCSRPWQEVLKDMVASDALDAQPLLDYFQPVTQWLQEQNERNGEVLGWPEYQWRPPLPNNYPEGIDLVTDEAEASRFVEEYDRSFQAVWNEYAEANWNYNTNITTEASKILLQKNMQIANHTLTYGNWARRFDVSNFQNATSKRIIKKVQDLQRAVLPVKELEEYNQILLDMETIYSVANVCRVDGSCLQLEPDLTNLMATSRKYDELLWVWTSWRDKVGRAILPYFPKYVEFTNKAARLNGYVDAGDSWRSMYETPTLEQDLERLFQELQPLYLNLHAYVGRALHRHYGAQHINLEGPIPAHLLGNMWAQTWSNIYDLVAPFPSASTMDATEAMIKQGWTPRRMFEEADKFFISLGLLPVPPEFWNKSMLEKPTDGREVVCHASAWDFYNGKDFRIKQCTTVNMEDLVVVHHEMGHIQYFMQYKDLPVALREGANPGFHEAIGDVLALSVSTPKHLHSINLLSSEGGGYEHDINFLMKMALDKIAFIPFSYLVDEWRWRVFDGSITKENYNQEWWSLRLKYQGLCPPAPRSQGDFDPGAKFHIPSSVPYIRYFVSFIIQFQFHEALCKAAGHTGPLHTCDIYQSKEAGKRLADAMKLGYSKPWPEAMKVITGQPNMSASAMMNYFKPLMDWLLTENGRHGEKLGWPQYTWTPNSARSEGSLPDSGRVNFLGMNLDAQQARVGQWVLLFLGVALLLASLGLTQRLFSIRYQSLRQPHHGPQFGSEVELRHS
Protocol: The ACE-inhibitory activity was evaluated according to the method reported in the literature by B. Holmquist et al., in Analytical Biochemistry 95, 540-548 (1979).
[…] of ACE (250 mU/ml purified by lung rabbit, EC 3.4.15.1 SIGMA) with 50 μl of the compound of formula I were preincubated in thermostated cuvettes at 37° C.
The reaction was started by adding furylacryloylphenylalanylglycylglycine 0.8 mM (FAPGG-SIGMA).
Contemporaneously, by using a Beckman DU-50 spectrophotometer provided with a program for calculating delta A/minutes and regression coefficients of the enzyme kinetics curves, the absorbance at 340 nm was recorded in continuo for 5 minutes.
The percentage of the enzyme inhibition in the preparations treated with the compounds of formula I with respect to the untreated preparations was expressed as IC50 value (nM).
as §1

| Structure (SMILES) | inhibitory activity towards thermolysin (in words) [1] | IC50 [2] [nM] | IC50 [3] [nM] |
| --- | --- | --- | --- |
| CC(C)CC(CP(=O)(O)CNC(=O)OCc1ccccc1)C(=O)NC(Cc1ccccc1)C(=O)O (stereo not drawn) | endowed with inhibitory activity towards thermolysin | – | – |
| CC(C)CC(CP(=O)(O)CCCc1ccccc1)C(=O)N[C@@H](Cc1ccc(-c2ccccc2)cc1)C(=O)O (stereo partly drawn) [Compound 1, N-[3-[(3-phenylpropyl)(hydroxy)phosphinyl]-2-isobutyl-propionyl]-(1,1'-biphenyl-4-yl)-L-alanine dilithium salt] | – | 368 | 70 |
| CC(C)CC(CP(=O)(O)CCCCc1ccccc1)C(=O)N[C@@H](Cc1ccc(-c2ccccc2)cc1)C(=O)O (stereo partly drawn) [Compound 2, N-[3-[(4-phenylbutyl)(hydroxy)phosphinyl]-2-isobutyl-propionyl]-(1,1'-biphenyl-4-yl)-L-alanine disodium salt] | – | 220 | 24 |
| CC(C)CC(CP(=O)(O)CNC(=O)c1ccccc1)C(=O)N[C@@H](Cc1ccc(-c2ccccc2)cc1)C(=O)O (stereo partly drawn) [Compound 6, N-[3-[(benzoylaminomethyl)(hydroxy)phosphinyl]-2-isobutyl-propionyl]-(1,1'-biphenyl-4-yl)-L-alanine] | – | 7.7 | 4.6 |
| CC(C)CC(CP(=O)(O)CNC(=O)Cc1ccccc1)C(=O)N[C@@H](Cc1ccc(-c2ccccc2)cc1)C(=O)O (stereo partly drawn) [Compound 7, N-[3-[(phenylacetylaminomethyl)(hydroxy)phosphinyl]-2-isobutyl-propionyl]-(1,1'-biphenyl-4-yl)-L-alanine] | – | 30.1 | 183 |
